Source: PubChem BioAssay AID1919007 (Molecular Pharmacology Branch, DTP, NCI, 2023)
pIC50: −log10 of the molar value.

Tested on: A498 complex spheroids with HUVEC/MSC, growth
Assay: Anticancer human tumor A498 cell line growth inhibition [AhR];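 note: seven day exposure starting three days after spheroid seeding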;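 for viability, T/C: luminescence signal used as a surrogate for viable cells; luminescence viability scaled so 100% equals DMSO vehicle wells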
Conditions: for pIC50: curve of first compound; for viability, T/C: stronger effect = lower value
Excerpt: Multicellular complex tumor spheroid response to aryl hydrocarbon receptor antagonists in combination with a variety of drugs and investigational agents in selected tumor cell lines
The current study was undertaken to assess response to aryl hydrocarbon receptor antagonists in combination with standard-of-care drugs and investigational agents in solid tumor complex spheroid models. Complex spheroids include a stromal component modeled by human endothelial cells (HUVEC) and fibroblasts modeled by human mesenchymal stem cells (MSCs). The concentration ranges selected for each drug and investigational agent were based upon clinically achievable concentrations if the clinical Cmax of the agent was known.
Compounds. The drugs and investigational agents: BAY 2416964 (NSC825713), GNF351 (NSC835774), CH-223191 (NSC835775), CPI-455 (NSC825282), aza-TdCyd (NSC777586), decitabine (NSC127716), belinostat (NSC758774), entinostat (NSC756642), pevonedistat (NSC761192), tazemetostat (NSC777109), talazoparib (NSC765396), olaparib (NSC753686), selinexor (NSC780203), nedisertib (M3814, NSC802822), bortezomib (NSC756655), venetoclax (NSC766270), doxorubicin (NSC123127), elimusertib (BAY189344, NSC800525), ceralasertib (AZD6738, NSC777638), TAK-243 (NSC785004), alisertib (NSC759677), etoposide (NSC141540), topotecan (NSC609699), eribulin (NSC707389), gemcitabine (NSC613327), carboplatin (NSC241240), cisplatin (NSC119875), and SN-38 (NSC673596) were obtained from the National Cancer Institute (NCI) Developmental Therapeutics Program Chemical Repository (32). The FDA-approved anticancer drug set is available from the Developmental Therapeutics Program at https://dtp.cancer.gov/organization/dscb/obtaining/available plates.htm. […] The stock solutions were prepared in dimethyl sulfoxide (DMSO, Sigma-Aldrich, St. Louis, MO, cat. D2650), except for the platinum compounds which were prepared in saline (Quality Biological, Gaithersburg, MD, cat. 114-055-101), at 800-fold the tested concentration and stored at -70 degrees C prior to their use. All drugs and investigational agents were tested over a range starting from a high concentration at or near the clinical Cmax and decreasing in half-log increments. If the clinical Cmax for an agent had not been determined, the highest concentration tested was 10 microM (Table 1).
Cell Culture. All cells were maintained in an incubator at 37 degrees C and 5% CO2 with 95% humidity. The PDC lines were cultured according to standard operating procedures established by the NCI PDMR (https://pdmr.cancer.gov). Briefly, all PDCs were thawed and cultured in Matrigel-coated flasks prepared with a working solution of 1X Ham's F-12 nutrient mix, without supplementation (Invitrogen, Waltham, MA, cat. 11765054), 100 U/mL penicillin-streptomycin (Invitrogen, cat. 15140122), and 2.5% Matrigel (Corning Inc., Corning, NY, cat. 354248) for the first three passages. All PDCs were cultured in complete DMEM/F-12 media containing advanced DMEM/F-12 (Invitrogen, cat. 12634028), 4.9% defined fetal bovine serum, heat inactivated (HyClone Laboratories Inc., Logan, UT, cat. SH30070.03HI), 389 ng/mL hydrocortisone (Sigma-Aldrich, cat. H4001), 9.7 ng/mL human EGF recombinant protein (Invitrogen, cat. PHG0313), 23.4 microg/mL adenine (Sigma-Aldrich, cat. A2786), 97.3 U/mL penicillin-streptomycin (Invitrogen, cat. 15140122), 1.9 mM L-glutamine (Invitrogen, cat. 25030081), and 9.7 microM Y-27632 dihydrochloride (Tocris Bioscience, Bristol, United Kingdom, cat. 1254). The PDCs were cultured in complete DMEM/F12 media without 10 microM Y-27632 dihydrochloride for at least two passages prior to the screen. The established cell lines NCI-H1341 and […] were cultured in DMEM/F-12, HEPES (Invitrogen, cat. 11330032), 5% defined fetal bovine serum (HyClone Laboratories Inc., cat. SH30070.03), ITS premix universal culture supplement [insulin (5 microg/mL), transferrin (5 microg/mL), and selenious acid (5 ng/mL)] […]

[1] = second compound 0.1 µM, first compound 0.0316 µM
[2] = second compound 0.1 µM, first compound 0.1 µM
[3] = second compound 0.1 µM, first compound 0.316 µM
[4] = second compound 0.1 µM, first compound 1 µM
[5] = second compound 0.1 µM, first compound 3.16 µM
[6] = second compound 0.1 µM, first compound 10 µM
[7] = second compound 0.316 µM, first compound 0.0316 µM
[8] = second compound 0.316 µM, first compound 0.1 µM
[9] = second compound 0.316 µM, first compound 0.316 µM
[10] = second compound 0.316 µM, first compound 1 µM
[11] = second compound 0.316 µM, first compound 3.16 µM
[12] = second compound 0.316 µM, first compound 10 µM
[13] = second compound 1 µM, first compound 0.0316 µM
[14] = second compound 1 µM, first compound 0.1 µM
[15] = second compound 1 µM, first compound 0.316 µM
[16] = second compound 1 µM, first compound 1 µM
[17] = second compound 1 µM, first compound 3.16 µM
[18] = second compound 1 µM, first compound 10 µM
[19] = second compound 3.16 µM, first compound 0.0316 µM
[20] = second compound 3.16 µM, first compound 0.1 µM
[21] = second compound 3.16 µM, first compound 0.316 µM
[22] = second compound 3.16 µM, first compound 1 µM
[23] = second compound 3.16 µM, first compound 3.16 µM
[24] = second compound 3.16 µM, first compound 10 µM
[25] = second compound 10 µM, first compound 0.0316 µM
[26] = second compound 10 µM, first compound 0.1 µM
[27] = second compound 10 µM, first compound 0.316 µM
[28] = second compound 10 µM, first compound 1 µM
[29] = second compound 10 µM, first compound 3.16 µM
[30] = second compound 10 µM, first compound 10 µM

| Structure (SMILES) | pIC50 (second compound 0.1 µM) | pIC50 (second compound 0.316 µM) | pIC50 (second compound 1 µM) | pIC50 (second compound 3.16 µM) | pIC50 (second compound 10 µM) | viability, T/C [1] | viability, T/C [2] | viability, T/C [3] | viability, T/C [4] | viability, T/C [5] | viability, T/C [6] | viability, T/C [7] | viability, T/C [8] | viability, T/C [9] | viability, T/C [10] | viability, T/C [11] | viability, T/C [12] | viability, T/C [13] | viability, T/C [14] | viability, T/C [15] | further results |
| --- | --- | --- | --- | --- | --- | --- | --- | --- | --- | --- | --- | --- | --- | --- | --- | --- | --- | --- | --- | --- | --- |
| Nc1ccn(C2OC(CO)C(O)C2(F)F)c(=O)n1 (stereo not given) + Cc1ccccc1N=Nc1ccc(NC(=O)c2ccnn2C)c(C)c1 | > 7.50 | > 7.50 | > 7.50 | > 7.50 | > 7.50 | 33.3% | 36% | 39.9% | 47.9% | 46.9% | 43.5% | 30.9% | 33.1% | 43.9% | 44.8% | 50.5% | 38% | 35.5% | 33.2% | 44% | viability, T/C [16]: 50.7%; viability, T/C [17]: 42.7%; viability, T/C [18]: 38.2%; viability, T/C [19]: 37%; viability, T/C [20]: 37.5%; viability, T/C [21]: 46.5%; viability, T/C [22]: 41.8%; viability, T/C [23]: 44.6%; viability, T/C [24]: 38.8%; viability, T/C [25]: 37.4%; viability, T/C [26]: 40.8%; viability, T/C [27]: 46.6%; viability, T/C [28]: 45.7%; viability, T/C [29]: 44.7%; viability, T/C [30]: 40.9% |
| Cc1cncc(-c2nc(NCCc3c[nH]c4ccccc34)c3ncn(C(C)C)c3n2)c1 | – | – | – | – | – | – | – | – | – | – | – | – | – | – | – | – | – | – | – | – | viability, T/C (compound 0.1 µM): 90% [middle of 20 runs]; viability, T/C (compound 0.316 µM): 95.3% [middle of 20 runs]; viability, T/C (compound 1 µM): 87.7% [middle of 20 runs]; viability, T/C (compound 10 µM): 4.87% [middle of 19 runs]; IC50 (compound alone, run of 08/16/2022): 3.7 µM [middle of 24 runs] |
| COc1cc(C2c3cc4c(cc3C(OC3OC5COC(C)OC5C(O)C3O)C3COC(=O)C23)OCO4)cc(OC)c1O (stereo not given) + Cc1cncc(-c2nc(NCCc3c[nH]c4ccccc34)c3ncn(C(C)C)c3n2)c1 | < 5.00 | < 5.00 | < 5.00 | 5.44 | > 7.50 | 79.4% | 73% | 73.3% | 68.1% | 62.4% | 52.2% | 83.7% | 76.6% | 79.9% | 69% | 59.9% | 59% | 79.8% | 74% | 74.4% | viability, T/C [16]: 60.5%; viability, T/C [17]: 56.3%; viability, T/C [18]: 50.1%; viability, T/C [19]: 61.4%; viability, T/C [20]: 63.6%; viability, T/C [21]: 66.9%; viability, T/C [22]: 56.8%; viability, T/C [23]: 47.1%; viability, T/C [24]: 43.2%; viability, T/C [25]: 3.97%; viability, T/C [26]: 4.03%; viability, T/C [27]: 4.95%; viability, T/C [28]: 4.99%; viability, T/C [29]: 5.98%; viability, T/C [30]: 6.6% |
| COc1cc(Nc2ncc3c(n2)-c2ccc(Cl)cc2C(c2c(F)cccc2OC)=NC3)ccc1C(=O)O + CC(CO)NC(=O)c1cc(-c2ccc(Cl)cc2)nn(-c2cnn(C)c2)c1=O | 5.83 | 5.87 | 6.05 | 5.97 | 6.34 | 62.6% | 69.4% | 63.5% | 50.2% | 45.3% | 33.2% | 70% | 67.9% | 64.5% | 50.7% | 43.3% | 32.3% | 60.1% | 67.5% | 61.1% | viability, T/C [16]: 47%; viability, T/C [17]: 41.5%; viability, T/C [18]: 33.5%; viability, T/C [19]: 55.1%; viability, T/C [20]: 59.9%; viability, T/C [21]: 59.1%; viability, T/C [22]: 47.2%; viability, T/C [23]: 42.2%; viability, T/C [24]: 30.8%; viability, T/C [25]: 49.6%; viability, T/C [26]: 55%; viability, T/C [27]: 53.3%; viability, T/C [28]: 44.8%; viability, T/C [29]: 37.4%; viability, T/C [30]: 34.9% |
| CC(C)c1c(-c2ccccc2)nc2c(C#N)c[nH]n2c1=O + Cc1ccccc1N=Nc1ccc(NC(=O)c2ccnn2C)c(C)c1 | < 5.00 | < 5.00 | < 5.00 | < 5.00 | < 5.00 | 78.9% | 84.9% | 83.2% | 81.8% | 80.2% | 84.2% | 87.7% | 88.5% | 89.7% | 85.9% | 82.8% | 89.5% | 80.1% | 74.6% | 86.8% | viability, T/C [16]: 78.1%; viability, T/C [17]: 76.7%; viability, T/C [18]: 77.5%; viability, T/C [19]: 77.2%; viability, T/C [20]: 79.2%; viability, T/C [21]: 79.6%; viability, T/C [22]: 76.8%; viability, T/C [23]: 72.7%; viability, T/C [24]: 78.1%; viability, T/C [25]: 80.2%; viability, T/C [26]: 81.7%; viability, T/C [27]: 74.3%; viability, T/C [28]: 81%; viability, T/C [29]: 71.8%; viability, T/C [30]: 74.1% |
